Laboratory results from paper PMC13042944, “Substituent‐Based Modulation of Self‐Assembly and Immunogenicity of Amphipathic Peptides” (Advanced Science, 2026).
Where two headings read alike, the source gives them in different places.

B1: KFE5 (Ac-FKFEF-Am) (peptide)
peptide: Ac-FKFEF-NH2
notes: designed amphipathic pentapeptide, truncated variant of KFE8; also called KFE5(H); source: synthetic peptide (Fmoc-SPPS on Rink Amide resin, HPLC purified)
B2: KFE8 (Ac-FKFEFKFE-Am) (peptide)
peptide: Ac-FKFEFKFE-NH2
notes: designed amphipathic octapeptide; also called double repeat of FKFE

How the values were obtained:
[1] = Gelation, rheology (G′, G″) and viscosity of peptide solutions; assay type: physicochemical; conditions: for Gel Formation: 5 mM peptide concentration, in deionized water; for viscosity (in words): 5 mM peptide solutions, shear rate 100 s^-1, n = 4
Procedure: An ARES 2000ex rotational rheometer (TA Instruments, New Castle, DE) was used to evaluate the viscosity and viscoelastic properties of the peptides. Peptides were freshly solubilized in deionized water at 5 mM and allowed to incubate for 10 min to allow for complete solubilization. Next, 170 µL of each peptide solution was pipetted directly onto the rheometer stage. A 20 mm parallel plate geometry was lowered to a gap of 200 µm. Storage modulus (G′) and loss modulus (G″) were measured as a function of strain amplitude of 0.05–50% at an angular frequency of 10 rad/s to determine the linear viscoelastic region. Next, G′ and G″ were measured as a function of angular frequency (1–10 rad/s) at a strain of 1%. […] Separately, a Hagen‐Poiseuille viscometer (microVISC, Rheosense, San Ramon, CA) was used at a shear rate of 1000 s^−1 to validate measured viscosity trends.

[2] = Thioflavin T (ThT) fluorescence assay of fibrils; assay type: physicochemical; conditions: 50 µM peptide, ThT 10 µM, ex 440 nm / em 485 nm, n = 4
Procedure: For ThT assays, 50 µM fibrillated peptide solutions (diluted in UPW from fibrillated peptide solutions as stated above) were mixed with 20 µM ThT solution, and fluorescence was monitored at 485 nm upon excitation at 440 nm in a 96‐well plate using a Synergy HT plate reader (Biotek, USA). The OVA‐conjugated peptide fibrils were used to assess long‐term stability over a 7‐day period.

[3] = system: mouse bone-marrow dendritic cells (DCs); assay: Cytokine and chemokine release from BMDC cultures treated with nanofibers; assay type: cell-based; conditions: BMDCs treated with peptide nanofibers 10 μM for 24 h, supernatant analysed
Procedure: The femurs and tibiae of mice of C57BL/6 mice were flushed, and single‐cell suspensions were prepared, following removal of red blood cells (RBCs) using lysis buffer (Invitrogen, USA). After washing twice using HBSS (Hanks balanced salt solution), cells were differentiated for 7–9 days in complete Roswell Park Memorial Institute (RPMI) 1640 media containing heat‐inactivated Fetal bovine serum (FBS) (10%), β‐mercaptoethanol (55 µM), sodium pyruvate (1 mM), 10 mM 4‐hydroxyethylpiperazine ethane sulfonic acid (HEPES), 1× MEM (Minimum Essential Medium) non‐essential amino acids, 20 ng/mL granulocyte‐macrophage colony‐stimulating factor (GM‐CSF), 5 ng/mL IL‐4 and 100 µg/mL Penicillin‐Streptomycin (pen‐strep) in 150 mm dish (25 mL/dish) in an incubator at standard conditions (37°C and 5% CO2). Cells were harvested using gentle washing with MEM media between days 7–9 for experiments.
[picture] Figure S16. Cytokines and chemokines production in mouse bone-marrow dendritic cells (DCs) treated with peptide nanofibers (10 μM) for 24 h.

[4] = Negative-stain TEM of self-assembled peptide fibrils (width, length, morphology); assay type: physicochemical; conditions: for self-assembly / fibril morphology (in words): in water, identical preparation conditions; for fibril width: assembled in water, 10 µM on grid, n = 200 measurements from 30 fibrils
Procedure: Peptide solutions (10 µM; diluted in UPW from fibrillated peptide solutions as stated above) were applied directly to 200‐mesh, carbon‐coated copper grids for 2 min and stained with 1% uranyl formate for 1 min. Excess stain and the peptide solution were blotted using filter paper, and grids were washed thrice with UPW. Darkfield images were acquired on a JEOL (Akishima, Japan) JEM‐2100F Field‐Emission STEM microscope at an accelerating voltage of 120 kV.
Individual fibers were selected for measurement, avoiding aggregates. The width of each fiber was measured using the line tool by drawing a line across the fiber's width at an angle approximately perpendicular (90°) to its orientation to ensure accuracy. Similar measurements were done to calculate the length of the fibrils. The start and end points of the line were determined based on the contrast between the fiber and the surrounding background. […]

[5] = Small-angle X-ray scattering (SAXS) of peptide assemblies; assay type: physicochemical; conditions: 4 mg/mL in deionized water (CN 2 mg/mL), 10°C, Debye‐Bueche fit 0.015–0.10 Å^−1
Procedure: SAXS data of the KFE5 X‐phenyl substituted peptide solutions were collected using a Rigaku (Woodlands, TX) BioSAXS‐1000 camera on an FRE^++ X‐ray generator with an ASC‐96 Automated Sample Changer held at 10°C. A matching buffer was collected for each sample. The detector was calibrated using a silver behenate powder sample, following the manufacturer's recommended procedure. The SAXS samples (KFE5 and its variants) were prepared by dissolving […] of lyophilized peptide in 400 µL of deionized water to produce a final concentration of 4 mg/mL. The samples were then vortexed, and precipitants were removed by centrifugation at […] for 5 min. Although the samples formed gels, these remained fluid under hydrostatic pressure, permitting pipetting by the ASC‐96 liquid handling system. The cyano variant of KFE5 was an exception. It remained a gel at 4 mg/mL and needed to be diluted to 2 mg/mL to be pipetted or flowed in the ASC‐96 liquid sample handling system. Processing was performed in SAXSLab (Rigaku) and SAXNS‐ES (https://xray.utmb.edu/SAXNS). Analyses were performed in Primus/GNOM [81], BIFT [82, 83], and gnuplot (http://www.gnuplot.info).

[6] = comparison values for longer KFE peptides; ref [14], [37]; cited from earlier work
From the text: All the KFE5 peptide SAXS curves fit simple shape models of long polydisperse rods plus smaller globular components (Figure 5A). The characteristics of these rods, extracted from fitting to a Guinier‐plate model, are almost identical with an average rod or tape thickness estimated at 31.9(1) Å (Figure 5B). This is similar to our previously measured values for KFE8 and KFE12 [14, 37]. This thickness, which includes contributions from the solvent layer, matches the β‐sheet sandwich model. This appears to be a common feature of the KFE peptides that is not disrupted by the modification of the ...

[7] = molecular target: the molecule itself; assay: negative-stain TEM; peptide solutions 10 µM, diluted in ultrapure water from fibrillated 1 mM stocks, on carbon-coated copper grids, 1% uranyl formate

Row | Molecule | Gel Formation [1] | viscosity (in words) [1] | self-assembly / fibril morphology (in words) [4] | fibril width [4] | binding result [7] | further results
1 | Ac-YKYEY-NH2 [KFE5(OH)] | No | lowest viscosities | complete ablation |  |  | storage modulus G′, fold lower than parent peptide ([1]; 5 mM peptide, strain 1%, angular frequency 10 rad/s, n = 3): approximately 2.5 fold; ThT fluorescence intensity (in words) [2]: lowest and comparable to ThT alone; cytokine and chemokine release profile (in words) [3]: release of MIP‐1α and MIP‐1β without TNF‐α secretion
2 | Ac-FKFEF-NH2 [KFE5, Ac‐FKFEF‐Am] | No | highest viscosity among the non‐gelling derivatives | broader tape‐like structures | 50–100 nm |  | gel inhomogeneity‐correlation length (ζ) [5]: about 58 Å
3 | CC(=O)N[C@@H](Cc1ccccc1)C(=O)N[C@@H](CCCCN)C(=O)N[C@@H](Cc1ccccc1)C(=O)N[C@@H](CCC(=O)O)C(=O)N[C@@H](Cc1ccccc1)C(=O)N[C@@H](CCCCN)C(=O)N[C@@H](Cc1ccccc1)C(=O)N[C@@H](CCC(=O)O)C(N)=O [KFE8, reference compound] |  |  | thin nanofibrils | 8–10 nm |  | gel inhomogeneity‐correlation length (ζ) [6]: 25 Å
4 | B1 |  |  |  |  | binds | 
5 | B2 |  |  |  |  | binds | 
